# Data: patent US10532040B2, “Methods of treating cancer with herbacetin” (REGENTS OF THE UNIVERSITY OF MINNESOTA, priority 2011, dated 2020)
# Entries after “also recorded” stand apart in the source; their conditions may differ.
# Legend:
# [1] = target: T1, ODC (WT, D44A, D243A, E384A) (Homo sapiens, UniProt P11926, D44A); assay: activity of ectopically expressed ODC (WT, D44A, D243A, E384A); format: cell-based; conditions: D44A vs D243A, E384A or wildtype ODC
# T1 construct: expressed in transfected cells; host or cells: HCT116 colon cancer cells
# T1 sequence (P11926 1-461 D44A): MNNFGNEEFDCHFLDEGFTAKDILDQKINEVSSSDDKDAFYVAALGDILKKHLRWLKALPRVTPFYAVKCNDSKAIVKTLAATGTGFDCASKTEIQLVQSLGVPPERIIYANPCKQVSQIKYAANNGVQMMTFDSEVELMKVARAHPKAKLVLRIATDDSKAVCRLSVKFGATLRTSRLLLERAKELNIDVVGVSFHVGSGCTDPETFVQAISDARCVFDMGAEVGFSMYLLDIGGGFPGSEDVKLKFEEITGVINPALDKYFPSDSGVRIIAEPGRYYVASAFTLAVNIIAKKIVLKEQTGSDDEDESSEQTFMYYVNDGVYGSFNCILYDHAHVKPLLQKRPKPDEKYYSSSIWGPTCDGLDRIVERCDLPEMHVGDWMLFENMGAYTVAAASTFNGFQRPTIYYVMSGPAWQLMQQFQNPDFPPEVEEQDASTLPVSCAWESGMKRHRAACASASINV
# Method: FIGS. 1A-1H. Herbacetin binds directly to ODC and inhibits ODC activity. (a) Chemical structure of herbacetin, a new allosteric ODC inhibitor. (b) Computer modeling of herbacetin and the ODC protein crystal structure. […] (c, upper panel) Recombinant ODC, (c, lower panel) HCT116 colon cancer cell lysate or (d) ectopically expressed ODC (WT, mutant D44A, D243A and E384A) cells were incubated with herbacetin-conjugated Sepharose 4B beads or with Sepharose 4B beads alone. Proteins were pulled down using anti-Xpress and then analyzed by Western blotting. The effect of herbacetin on ODC activity was assessed using a (e) recombinant ODC protein, (f) HCT116 colon cancer cells, or (g) TPA-treated JB6 mouse skin epidermal cells. (h) The effect of herbacetin on ectopically expressed ODC (WT, D44A, D243A, E384A) activity was measured as the release of CO2 from L-[1-C^14] ornithine. For e-h, data are represented as means±S.D. of values from triplicate experiments and the asterisk (*) indicates a significant difference (p<0.05) between herbacetin- or DFMO-treated samples compared to untreated controls. WB, Western blot.
# ODC activity was measured as the release of CO2 from L-[1-C^14] ornithine as previously described ([…]).
# [2] = tested on: SKH-1 hairless mice, DMBA/TPA; assay: TPA-induced skin cancer prevention study, 30 weeks (Example 2); format: in vivo, mouse
# Method: For the effect of herbacetin on preventing TPA-induced skin cancer, SKH-1 hairless mice were divided into 5 groups of 26-30 mice/group. All mice were initiated with 200 nmol DMBA applied topically on the dorsal surface. Two weeks later, TPA (17 nmol) was applied topically on the dorsal surface twice a week for a total of 30 weeks. Four groups of mice were treated with herbacetin (20, 100, 200, or 500 nmol) 30 min before application of TPA.
# [3] = tested on: HCT116 colon cancer cells; assay: anchorage independent HCT116 colon cancer cell growth; format: cell-based
# Method: (§1) FIGS. 3A-3H. Anticancer effect of herbacetin. (a) The effect of herbacetin on ODC activity in colon cancer cell lines was measured as the release of CO2 from L-[1-C^14] ornithine. […] (b) The effect of herbacetin and DFMO on the growth of colon cancer cells and (c) TPA-induced JB6 cell growth was compared. Cells were incubated for 72 h and growth was estimated using the MTS assay. (d) The effect of herbacetin on anchorage independent HCT116 colon cancer cell growth and (e) TPA-induced JB6 cell transformation was assessed. Cells were incubated for 2 weeks and then colonies were counted using a microscope and the Image-Pro PLUS (v.6) computer software program. The effect of herbacetin on AP-1 reporter activity in (f) HCT116 colon cancer cells and (g) TPA-induced AP-1 reporter activity in JB6 mouse epidermal cells was analyzed using the substrates included in the reporter assay system. Data are represented as means±S.D. of triplicate values from three independent experiments and the asterisk (*) indicates a significant (p<0.05) effect of herbacetin or DFMO compared to untreated or TPA-treated controls. (h) The effect of herbacetin on the phosphorylation of ERK1 and ERK2 in HCT116 colon cancer cells was determined by Western blotting. Similar results were observed from two independent experiments.
# JB6 epidermal cells = assay: TPA-induced JB6 cell transformation; format: cell-based, mouse; conditions: 2 weeks
# Method: as §1
# [4] = tested on: HCT116 cells (shMock, shODC, shODC+ODC); assay: growth of shMock, shODC and shODC+ODC HCT116 cells; format: cell-based
# Method: FIGS. 4A-4B. The anti-cancer activity exerted by herbacetin is dependent on ODC expression. (a) The effect of herbacetin on HCT116 colon cancer cell growth was assessed in shMock, shODC and shODC cells with rescued ODC expression. Cells were incubated for 72 h and growth was determined by MTS assay. (b) The effect of herbacetin on anchorage independent HCT116 colon cancer cell growth was assessed inshMock, shODC and shODC cells with rescued ODC expression. Cells were incubated in 0.3% agar for 3 weeks and colonies were counted using a microscope and the Image-Pro PLUS (v.6) computer software program. Data are represented as means±S.D. of triplicate values. The asterisk (*) indicates a significant effect (p<0.05) of herbacetin or DFMO compared to untreated controls.
# The lentiviral expression vectors, including pLKO.1-shODC and packaging vectors, including pMD2.0G and psPAX, were purchased from Addgene Inc. (Cambridge, Mass.). […] The transfection medium was changed at 4 h after transfection and then cells were cultured for 36 h. The viral particles were harvested by filtration using a […] syringe filter and then combined with 8 μg/ml of polybrane (Millipore, Billerica, Mass.) and infected into 60% confluent HCT-116 cells overnight. The cell culture medium was replaced with fresh complete growth medium for 24 h and then cells were selected with 1.5 μg/ml of puromycine for 36 h. The selected cells were used for experiments.
# [5] = tested on: activator protein-1, Cox2, NF-kappaB; assay: promoter activities (preliminary data); format: cell-based
structure (smiles),measurement,setting,value
"O=c1c(O)c(-c2ccc(O)cc2)oc2c(O)c(O)cc(O)c12 [herbacetin, 3,5,7,8,4′-Pentahydroxyflavone]",susceptibility of ODC D44A mutant activity to herbacetin,[1],less susceptible
same,tumor growth induced by TPA,"[2]; herbacetin 20, 100, 200 or 500 nmol 30 min before TPA, 30 weeks",decreased tumor growth
same,mice developing papillomas (incidence),[2]; vs untreated control mice,Fewer mice developed papillomas
same,number of papillomas,[2]; vs untreated control mice,fewer papillomas (dose-dependent)
same,tumor size,[2]; vs untreated controls,significantly smaller tumors
same,effectiveness relative to DFMO in suppressing anchorage independent growth,"[3]; HCT116, 2 weeks",at least 20 fold
same,potency relative to DFMO,"[3]; general statement, test not specified",20-50 times
same,TPA-induced neoplastic transformation of JB6 epidermal cells,JB6 epidermal cells,markedly suppressed
same,inhibitory effect on anchorage-dependent and -independent growth of shODC cells,[4]; shODC vs shMock HCT116 cells,resistance to herbacetin; also recorded: resistant
same,sensitivity of shODC cells with rescued ODC expression,[4]; shODC+ODC HCT116 cells,restored; also recorded: regained sensitivity
same,inhibition of colony growth after re-introduction of ODC into sh-ODC knockdown cells,"[4]; shODC+ODC HCT116 cells, soft agar",restored sensitivity
same,"promoter activities of activator protein-1, Cox2, NF-kappaB",[5],suppress promoter activities
